# From patent US5474763A, “Reduction of hair growth” (priority 1994, dated 1995)
# Read-outs that look alike come from different tables or passages of the source.
# Tests used:
# [1] = target: T1, ornithine aminotransferase (OAT) (Mesocricetus auratus, UniProt A0A1U7QEB0); assay: OAT activity assay in hair follicles (P5C formation, HPLC of DHQ); assay type: biochemical, hamster
# T1 construct: Assays (including the initial assays) were conducted utilizing excised hamster flank organ follicles; from tissue; host or cells: hamster flank organ hair follicles, minced, sonicated and centrifuged; supernatant assayed
# T1 sequence (A0A1U7QEB0 1-439): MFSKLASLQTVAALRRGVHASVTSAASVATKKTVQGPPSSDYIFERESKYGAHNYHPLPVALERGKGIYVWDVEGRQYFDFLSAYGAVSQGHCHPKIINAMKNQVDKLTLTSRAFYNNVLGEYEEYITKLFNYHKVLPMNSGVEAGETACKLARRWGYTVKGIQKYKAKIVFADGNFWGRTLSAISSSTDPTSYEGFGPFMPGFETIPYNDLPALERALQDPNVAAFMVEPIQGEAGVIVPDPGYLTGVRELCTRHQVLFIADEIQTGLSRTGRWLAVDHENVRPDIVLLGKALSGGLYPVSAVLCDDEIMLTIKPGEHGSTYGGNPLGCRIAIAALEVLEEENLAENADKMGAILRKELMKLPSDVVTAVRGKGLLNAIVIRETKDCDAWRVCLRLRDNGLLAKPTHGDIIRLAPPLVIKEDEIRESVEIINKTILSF
# Protocol: The following assay for OAT activity based on the procedure of O'Donnell et al., Analytical Biochemistry 90, 41-46 (1978) was adapted for OAT measurements in hair follicles, and can be used to evaluate the effectiveness of OAT inhibitors in reducing OAT activity.
# The product of OAT activity, pyrroline-5-carboxylic acid (P5C), was measured by reverse-phase HPLC analysis of dihydroquinazolium ion (DHQ). DHQ is a reaction product of PSC and o-aminobenzylaldehyde (OAB). The analysis was performed with a Waters 490 UV detector. The amount of DHQ formed was directly proportional to the concentration of P5C. The sensitivity of the Waters 490 UV detector had been determined to be above 100 picomoles of PSC injected and was reasonably linear.
# Initial assays of flank organ follicle OAT activity were conducted employing saturating doses of ornithine (350 mM). The OAT mediated conversion of ornithine to P5C was monitored by measuring in vitro PSC formation, resulting in time and concentration dependent increases in PSC.
# Assays (including the initial assays) were conducted utilizing excised hamster flank organ follicles. The excised hamster follicles were diluted in assay buffer (2 follicles/300 μl) and then were minced with scissors and homogenized with a sonicator. The resultant homogenate was centrifuged to obtain a cytosolic supernatant which was assayed for OAT. Samples were incubated for one hour with either Gabaculin, L-Canaline, or 5-FMOrn at 1 mM, 100 μM, 10 μM, and 1 μM concentrations. The concentration of P5C was then assayed.
# [2] = system: flank organs hair growth; assay: Golden Syrian hamster assay (flank organ hair mass); assay type: in vivo; settings: topical, thirteen applications; for Treated (hair mass, mean ± SEM): treated flank organ
# Description: Male intact Golden Syrian hamsters are considered acceptable models for human beard hair growth in that they display oval shaped flank organs, one on each side, each about 8 mm. in major diameter, which grow thick black and coarse hair similar to human beard hair. These organs produce hair in response to androgens in the hamster. To evaluate the effectiveness of a particular OAT inhibitor, the flank organs of each of a group of hamsters are depilated by applying a thioglycolate based chemical depilatory (Surgex). To one organ of each animal 10-25 μl. of vehicle alone once a day is applied, while to the other organ of each animal an equal amount of vehicle containing an OAT inhibitor is applied. After thirteen applications (one application per day for five days a week), the flank organs are shaved and the amount of recovered hair (hair mass) from each is weighed. Percent-reduction of hair growth is calculated by subtracting the hair mass (mg) value of the test compound treated side from the hair mass value of the vehicle treated side; the delta value obtained is then divided by the hair mass value of the vehicle treated side, and the resultant number is multiplied by 100.
# The above-described assay will be referred to herein as the "Golden Syrian hamster" assay. Preferred compositions provide an reduction in hair growth of at least about 35%, more preferably at least about 50%, and most preferably at least about 70% when tested in the Golden Syrian hamster assay.
# The vehicle used in the compositions tested was 68% deionized water, 16% absolute ethanol, 5% propylene glycol, 5% dipropylene glycol, 4% benzoyl alcohol, and 2% propylene carbonate.
# [3] = 10 μM, one hour incubation, flank organ follicle supernatant
# [4] = 100 μM, one hour incubation, flank organ follicle supernatant, read-out: Percent Inhibition (OAT)
compound,measurement,setting,value
"NC(CF)CCC(N)C(=O)O (stereo not shown) [5-FMOrn, 6-fluoro-2,5-diaminohexanoic acid]",nm P5C formed/fol/1 hr,"[1]; 1 μM, one hour incubation",31.419 nm P5C formed/fol/1 hr
same,Percent Inhibition (OAT),"[1]; 1 μM, one hour incubation, flank organ follicle supernatant",No OAT inhibition and none
same,nm P5C formed/fol/1 hr,"[1]; 10 μM, one hour incubation",29.327 nm P5C formed/fol/1 hr
same,Percent Inhibition (OAT),[1]; [3],No OAT inhibition and none
same,nm P5C formed/fol/1 hr,"[1]; 100 μM, one hour incubation",19.562 nm P5C formed/fol/1 hr
same,nm P5C formed/fol/1 hr,"[1]; 1 mM, pH = 7.5, one hour incubation",3.334 nm P5C formed/fol/1 hr
same,Percent Inhibition (OAT),"[1]; 1 mM, pH = 7.5, one hour incubation, flank organ follicle supernatant",83.036%
same,inhibition at 100 µM,"[1]; read-out: Percent Inhibition (OAT), 100 μM, one hour incubation, flank organ follicle supernatant",0.471%
same,inhibition at 1000 µM,"[1]; read-out: Percent Inhibition (OAT), 1 mM, pH = 7.5, one hour incubation, flank organ follicle supernatant",83%
same,"% Reduction (of hair growth, mean ± SEM)",[2]; 5% in vehicle,66.02 ± 6.30%
same,"Treated (hair mass, mean ± SEM)",[2]; 5% in vehicle,.616 ± .15 mg
same,"% Reduction (of hair growth, mean ± SEM)",[2]; 15% in vehicle,84.55 ± 2.47%
same,"Treated (hair mass, mean ± SEM)",[2]; 15% in vehicle,.322 ± .07 mg
"NOCC[C@H](N)C(=O)O [Canaline, (S)-2-amino-4-amino-oxybutyric acid]",nm P5C formed/fol/1 hr,"[1]; 1 μM, one hour incubation",29.859 nm P5C formed/fol/1 hr
same,Percent Inhibition (OAT),"[1]; 1 μM, one hour incubation, flank organ follicle supernatant, listed as L-Canaline",no inhibition and none
same,nm P5C formed/fol/1 hr,"[1]; 10 μM, one hour incubation",24.096 nm P5C formed/fol/1 hr
same,Percent Inhibition (OAT),"[1]; 10 μM, one hour incubation, flank organ follicle supernatant, listed as L-Canaline",no inhibition and none
same,nm P5C formed/fol/1 hr,"[1]; 100 μM, one hour incubation",14.612 nm P5C formed/fol/1 hr
same,Percent Inhibition (OAT),"[1]; 100 μM, one hour incubation, flank organ follicle supernatant, listed as L-Canaline",25.653%
same,inhibition at 100 µM,[1]; [4],25%
same,inhibition at 1000 µM,"[1]; 1 mM, pH = 7.5, one hour incubation, flank organ follicle supernatant, read-out: Percent Inhibition (OAT)",100%
same,"% Reduction (of hair growth, mean ± SEM)",[2]; 2% in vehicle,20.99 ± 7.70%
same,"Treated (hair mass, mean ± SEM)",[2]; 2% in vehicle,1.553 ± .20 mg
same,"% Reduction (of hair growth, mean ± SEM)",[2]; 10% in vehicle,44.50 ± 7.40%
same,"Treated (hair mass, mean ± SEM)",[2]; 10% in vehicle,.790 ± .11 mg
"NC1C=CC=C(C(=O)O)C1 (stereo not shown) [Gabaculin, 3-amino-2,3-dihydrobenzoic acid]",nm P5C formed/fol/1 hr,"[1]; 1 μM, one hour incubation",19.637 nm P5C formed/fol/1 hr
same,inhibition at 1 µM,"[1]; 1 μM, one hour incubation, flank organ follicle supernatant, read-out: Percent Inhibition (OAT)",0.089%
same,nm P5C formed/fol/1 hr,"[1]; 10 μM, one hour incubation",5.057 nm P5C formed/fol/1 hr
same,Percent Inhibition (OAT),[1]; [3],74.268%
same,inhibition at 10 µM,"[1]; 10 μM, one hour incubation, flank organ follicle supernatant, read-out: Percent Inhibition (OAT)",75%
same,inhibition at 100 µM,[1]; [4],100%
same,inhibition at 1000 µM,"[1]; 1 mM, one hour incubation, flank organ follicle supernatant, read-out: Percent Inhibition (OAT)",100%
same,relative potency as OAT inhibitor,"[1]; comparison of Gabaculin, L-Canaline and 5-FMOrn",most potent inhibitor
same,"% Reduction (of hair growth, mean ± SEM)",[2]; 10% in vehicle,43.06 ± 2.72%
same,"Treated (hair mass, mean ± SEM)",[2]; 10% in vehicle,1.365 ± .14 mg
same,"% Reduction (of hair growth, mean ± SEM)",[2]; 25% in vehicle,48.08 ± 5.00%
same,"Treated (hair mass, mean ± SEM)",[2]; 25% in vehicle,1.266 ± .11 mg
